Measurements taken from EP0977560B1 (PAZ Arzneimittel- Entwicklungsgesellschaft mbH, priority 1997, dated 1998).

Experiments:
[1] = system: PGHS-2 (Cyclooxygenase-2); assay: Formation of PGHS-2 in LPS-induced monocytes (method after Brideau et al., human whole blood assay); type: cell-based; conditions: LPS-induced Monozyten, 24 Std.; R-Ibuprofenoyl-CoA 0.5, 0.25, 0.05 mM; Ibuprofen, razemisch 1.0, 0.1, 0.05 mM; Abbildung 2
From the text: Inkubation von LPS-induzierten Monozyten (24 Std.). […] Methode nach: BRIDEAU, C., KARGMAN, S., LIU, S., DALLOB, A.L., EHRICH, E.W., RODGER, I.W. & CHAN, C.C. […] A human whole blood assay for clinical evaluation of biochemical efficacy of cyclooxygenase inhibitors. Inflamm. Res., 45, 68-74.

[2] = system: Transkriptionsfaktors NF-κB; assay: Electro mobility shift assay (DIG Gel Shift Kit) of NF-κB activation in TPA-stimulated Jurkat cells; type: cell-based; conditions: Phorbolester (TPA) stimulated Jurkat-Zellen; two-hour preincubation; 100, 10 and 1 ptm (Spur 3-5); Abbildung 1
From the text: Einfluß von R-Ibuprofen-CoA-Thioester auf die Aktivierung des Transkriptionsfaktors NF-κB in Jurkat-Zellen. […] Spur 1 zeigt die unstimulierten, Spur 2 die stimulierten Kontrollzellen.

## CC(C)Cc1ccc([C@@H](C)C(=O)SCCNC(=O)CCNC(=O)[C@H](O)C(C)(C)COP(=O)(O)OP(=O)(O)OC[C@H]2O[C@@H](n3cnc4c(N)ncnc43)[C@H](O)[C@@H]2OP(=O)(O)O)cc1 [R-Ibuprofen-CoA-Thioester]
[1]
  Bildung von PGHS-2 (Cyclooxygenase-2): dosisabhängig zu einer Unterdrückung der Bildung von PGHS-2
[2]
  Aktivierung des Transkriptionsfaktors NF-κB: Aktivierungshemmung von NF-κB
